These compounds were tested against T1, acyl-CoA:cholesterol acyltransferase (ACAT) (Oryctolagus cuniculus, UniProt G1SFD9) (assay: in vitro ACAT inhibition: radio-labeled cholesterol oleate formation from radio-labeled oleic acid in rabbit intestinal microsomes). Conditions: read-out: IC50 (concentration of test compound required to inhibit cholesteryl oleate formation to 50% of control).
T1 construct: tissue preparation containing rabbit intestinal microsomes; from tissue; host or cells: rabbit intestinal microsomes
T1 sequence (G1SFD9 1-524): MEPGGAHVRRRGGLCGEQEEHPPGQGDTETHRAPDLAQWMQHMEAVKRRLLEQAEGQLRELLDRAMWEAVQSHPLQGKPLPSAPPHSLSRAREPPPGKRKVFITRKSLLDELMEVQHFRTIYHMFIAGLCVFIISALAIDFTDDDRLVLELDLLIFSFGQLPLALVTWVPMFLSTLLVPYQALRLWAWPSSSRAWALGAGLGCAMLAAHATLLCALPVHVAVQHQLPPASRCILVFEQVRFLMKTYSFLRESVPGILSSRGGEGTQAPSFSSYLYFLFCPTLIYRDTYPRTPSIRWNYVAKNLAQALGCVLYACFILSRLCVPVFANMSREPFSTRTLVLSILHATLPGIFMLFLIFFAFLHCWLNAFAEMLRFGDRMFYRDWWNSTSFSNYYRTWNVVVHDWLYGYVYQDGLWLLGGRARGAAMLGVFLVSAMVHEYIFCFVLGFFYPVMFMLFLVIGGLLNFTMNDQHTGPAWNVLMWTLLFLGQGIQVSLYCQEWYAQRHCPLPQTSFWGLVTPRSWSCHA
Format: biochemical
Method: The ability of representative compounds of the present invention to inhibit ACAT was measured using an in vitro test more fully described in Field, F. J. and Salome, R. G., Biochimica et Biophysica Acta, volume 712, pages 557-570 (1982). The test assesses the ability of a test compound to inhibit the acylation of cholesterol by oleic acid by measuring the amount of radio-labeled cholesterol oleate formed from radio-labeled oleic acid in a tissue preparation containing rabbit intestinal microsomes. The data in Table I is expressed as IC50 values, i.e., the concentration of test compound required to inhibit cholesteryl oleate formation to 50% of control.

Which IC50 does the source give for CC(C)c1cccc(C(C)C)c1NC(=O)NOCc1cccc2ccccc12 [Example 3, N-[2,6-Bis(1-methylethyl)phenyl]-N'-(1-naphthalenylmethoxy)-urea] here?
The IC50 was 92 nM.

With CC(C)c1cccc(C(C)C)c1NC(=O)NOC(c1ccccc1)c1ccccc1 [Example 1, N-[2,6-Bis(1-methylethyl)phenyl]-N'-(diphenylmethoxy)-urea] as the compound, how does the IC50 read?
Its IC50 is 30 nM.

With CC(C)c1cccc(C(C)C)c1NC(=O)NOC(c1ccccc1)(c1ccccc1)c1ccccc1 [Example 2, N-[2,6-Bis(1-methylethyl)phenyl]-N'-(triphenylmethoxy)urea] as the compound, how does the IC50 read?
Its IC50 is 53 nM.
